# Measured values: ChEMBL document CHEMBL1126559, “Further studies of the structure-activity relationships of 1-[1-(2-benzo[b]thienyl)cyclohexyl]piperidine. Synthesis and evaluation of 1-(2-benzo[b]thienyl)-N,N-dialkylcyclohexylamines at dopamine uptake and phencyclidine binding sites” (J Med Chem, 1993)
# Columns and labels:
# [1] = target: T1, Sodium-dependent dopamine transporter (Rattus norvegicus, UniProt P23977); test: Tested for radioligand [3H]BTCP displacement from dopamine transporter in rat forebrain
# Glutamate NMDA receptor = test: Tested for affinity by radioligand [3H]-TCP displacement from phencyclidine binding site (PCP) in rat homogenates
# [2] = target: T1, Sodium-dependent dopamine transporter; test: Tested for radioligand [3H]cocaine displacement from dopamine transporter in rat forebrain
# [3] = target: T1, Sodium-dependent dopamine transporter; test: Tested for inhibition of radioligand [3H]dopamine (DA) uptake in rat synaptosomes; type: subcellular, Brain
# T1 sequence (P23977 whole entry): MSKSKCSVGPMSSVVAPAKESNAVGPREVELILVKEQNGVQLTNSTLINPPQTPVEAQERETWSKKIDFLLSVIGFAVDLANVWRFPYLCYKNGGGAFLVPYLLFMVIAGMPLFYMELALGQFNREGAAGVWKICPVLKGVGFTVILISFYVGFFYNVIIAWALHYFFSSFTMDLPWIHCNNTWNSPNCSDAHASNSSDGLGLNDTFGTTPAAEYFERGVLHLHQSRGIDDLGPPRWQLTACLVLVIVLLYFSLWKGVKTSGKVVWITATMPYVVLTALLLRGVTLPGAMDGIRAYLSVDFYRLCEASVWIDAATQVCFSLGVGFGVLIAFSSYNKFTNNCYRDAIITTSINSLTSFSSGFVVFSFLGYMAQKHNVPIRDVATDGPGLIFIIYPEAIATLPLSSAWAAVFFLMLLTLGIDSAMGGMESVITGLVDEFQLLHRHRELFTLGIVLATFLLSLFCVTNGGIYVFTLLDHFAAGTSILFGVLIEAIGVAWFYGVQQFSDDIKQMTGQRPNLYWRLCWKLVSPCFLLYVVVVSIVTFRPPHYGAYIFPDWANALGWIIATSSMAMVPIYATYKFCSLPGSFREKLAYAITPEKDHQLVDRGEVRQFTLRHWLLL
Structure (SMILES),IC50 [1] [nM],Ki (Glutamate NMDA receptor) [nM],IC50 [2] [nM],IC50 [3] [nM]
c1ccc2sc(C3(NCC4CC4)CCCCC3)cc2c1,1,> 10000,23,4
Clc1ccc(CCNC2(c3cc4ccccc4s3)CCCCC2)cc1Cl,1000,> 10000,> 5000,> 5000
Clc1ccc(CCNCCNC2(c3cc4ccccc4s3)CCCCC2)cc1Cl,211,> 10000,713,174
CCCCNC1(c2cc3ccccc3s2)CCCCC1,0.3,> 10000,60,7
NCC(=O)NC1(c2cc3ccccc3s2)CCCCC1,114,> 10000,841,138
NCCNC1(c2cc3ccccc3s2)CCCCC1,30,> 10000,170,88
CCNC1(c2cc3ccccc3s2)CCCCC1,22,> 10000,165,22
CC(C)=CCNC1(c2cc3ccccc3s2)CCCCC1,8,> 10000,50,14
O=C1NCCN1C1(c2cc3ccccc3s2)CCCCC1,1740,> 10000,> 5000,2120
CCCNC1(c2cc3ccccc3s2)CCCCC1,4,> 10000,57,5
c1ccc2sc(C3(N4CCCCC4)CCCCC3)cc2c1,–,> 10000,39,11
CCCCN(C)C1(c2cc3ccccc3s2)CCCCC1,21,> 10000,161,33
NCCCNC1(c2cc3ccccc3s2)CCCCC1,–,> 10000,–,–
C=CCNC1(c2cc3ccccc3s2)CCCCC1,7,> 10000,57,11
CNCCCCNC1(c2cc3ccccc3s2)CCCCC1,50,> 10000,328,33
CCCCN(CCCC)C1(c2cc3ccccc3s2)CCCCC1,124,> 10000,386,1360
CCCN(CCC)C1(c2cc3ccccc3s2)CCCCC1,37,> 10000,220,81
O=C(Cc1ccc(Cl)c(Cl)c1)NCCNC1(c2cc3ccccc3s2)CCCCC1,579,> 10000,1480,947
CN(C)C1(c2cc3ccccc3s2)CCCCC1,27,> 10000,84,51
CCCN(CC)C1(c2cc3ccccc3s2)CCCCC1,20,> 10000,207,17
COC(=O)[C@H]1[C@@H](OC(=O)c2ccccc2)C[C@@H]2CC[C@H]1N2C [COCAINE],–,> 10000,–,–
c1ccc2sc(C3(NCC4CCC4)CCCCC3)cc2c1,4,> 10000,37,7
CNCCNC1(c2cc3ccccc3s2)CCCCC1,17,> 10000,63,29
c1ccc(CNC2(c3cc4ccccc4s3)CCCCC2)cc1,143,> 10000,–,196
CCN(CC)C1(c2cc3ccccc3s2)CCCCC1,12,> 10000,42,12
CNC1(c2cc3ccccc3s2)CCCCC1,101,> 10000,270,57
CNCCCNC1(c2cc3ccccc3s2)CCCCC1,8,> 10000,746,89
CCCCCNC1(c2cc3ccccc3s2)CCCCC1,24,> 10000,337,34
